Assay results taken from US12568972B2, “Pyridazinol compounds and derivatives, preparation methods, herbicidal compositions and applications thereof” (Qingdao Kingagroot Chemical Compound Co., Ltd., priority 2018, dated 2026).

Tests used:
Test in all cases: Post-emergence test, weed control effect
Assay type in all cases: in vivo
Conditions in all cases: after 3 weeks
Chenopodiaceae = tested on: Chenopodiaceae
Outline: (§1)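 Weeds grown from seed in soil-filled pots in a greenhouse were sprayed at the 2-3 leaf stage, 2-3 weeks after sowing, with compound in acetone/Tween-80/water plus 80% vegetable oil methyl ester synergist at 1500 g/ha. Fresh-weight inhibition was scored on a 0-10 scale after 3 weeks.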

Veronica polita = tested on: Veronica polita
Outline: as §1

Rorippa indica = tested on: Rorippa indica
Outline: as §1

Amaranthus retroflexus = tested on: Amaranthus retroflexus
Outline: as §1

Cc1cc(C)c(-c2nnc(C(F)(F)F)cc2O)o1 [Compound 439]
10: weed control effect (activity level), Chenopodiaceae (Chenopodiaceae; Dose 3000 g/ha) | weed control effect (activity level), Veronica polita (Veronica polita; Dose 3000 g/ha) | weed control effect (activity level), Rorippa indica (Rorippa indica; Dose 3000 g/ha) | weed control effect (activity level), Amaranthus retroflexus (Amaranthus retroflexus; Dose 3000 g/ha)

C/C(=N/Oc1cc(C(F)(F)F)nnc1-c1ccc(C)c(C)c1)C(C)(C)C [Compound 1-174]
10: weed control effect, Chenopodiaceae (activity level) (Chenopodiaceae; Dose 3000 g/ha) | weed control effect, Veronica polita (activity level) (Veronica polita; Dose 3000 g/ha) | weed control effect, Rorippa indica (activity level) (Rorippa indica; Dose 3000 g/ha) | weed control effect, Amaranthus retroflexus (activity level) (Amaranthus retroflexus; Dose 3000 g/ha)

O=C(Oc1cc(C(F)(F)F)nnc1-c1ccc(F)cc1)N1CCOCC1 [Compound 1-68]
10: weed control effect, Chenopodiaceae (activity level) (Chenopodiaceae; Dose 3000 g/ha) | weed control effect, Veronica polita (activity level) (Veronica polita; Dose 3000 g/ha) | weed control effect, Rorippa indica (activity level) (Rorippa indica; Dose 3000 g/ha) | weed control effect, Amaranthus retroflexus (activity level) (Amaranthus retroflexus; Dose 3000 g/ha)

Oc1cc(C(F)(F)F)nnc1-c1cnc(Cl)cc1Cl [Compound 995]
10: weed control effect (activity level), Chenopodiaceae (Chenopodiaceae; Dose 3000 g/ha) | weed control effect (activity level), Veronica polita (Veronica polita; Dose 3000 g/ha) | weed control effect (activity level), Rorippa indica (Rorippa indica; Dose 3000 g/ha) | weed control effect (activity level), Amaranthus retroflexus (Amaranthus retroflexus; Dose 3000 g/ha)

Oc1cc(C(F)(F)F)nnc1-c1cc(OC(F)F)c(Cl)cc1Cl [Compound 165]
10: weed control effect (activity level), Chenopodiaceae (Chenopodiaceae; dose 2000 g/ha) | weed control effect (activity level), Veronica polita (Veronica polita; dose 2000 g/ha) | weed control effect (activity level), Rorippa indica (Rorippa indica; dose 2000 g/ha) | weed control effect (activity level), Amaranthus retroflexus (Amaranthus retroflexus; dose 2000 g/ha)

O=S(=O)(Oc1cc(C(F)(F)F)nnc1-c1ccc(F)c(F)c1)c1ccc(Cl)cc1F [Compound 1-128]
10: weed control effect, Chenopodiaceae (activity level) (Chenopodiaceae; Dose 3000 g/ha) | weed control effect, Veronica polita (activity level) (Veronica polita; Dose 3000 g/ha) | weed control effect, Rorippa indica (activity level) (Rorippa indica; Dose 3000 g/ha) | weed control effect, Amaranthus retroflexus (activity level) (Amaranthus retroflexus; Dose 3000 g/ha)

COc1ncccc1-c1nnc(C(F)(F)F)cc1O [Compound 227]
10: weed control effect (activity level), Chenopodiaceae (Chenopodiaceae; dose 2000 g/ha) | weed control effect (activity level), Veronica polita (Veronica polita; dose 2000 g/ha) | weed control effect (activity level), Rorippa indica (Rorippa indica; dose 2000 g/ha) | weed control effect (activity level), Amaranthus retroflexus (Amaranthus retroflexus; dose 2000 g/ha)

Oc1cc(C(F)(F)F)nnc1-c1cccc(C(F)(F)F)c1F [Compound 761]
10: weed control effect (activity level), Chenopodiaceae (Chenopodiaceae; Dose 3000 g/ha) | weed control effect (activity level), Veronica polita (Veronica polita; Dose 3000 g/ha) | weed control effect (activity level), Rorippa indica (Rorippa indica; Dose 3000 g/ha) | weed control effect (activity level), Amaranthus retroflexus (Amaranthus retroflexus; Dose 3000 g/ha)

Oc1cc(C(F)(F)F)nnc1-c1c(F)c(F)c(F)c(F)c1F [Compound 55]
10: weed control effect (activity level), Chenopodiaceae (Chenopodiaceae; dose 1000 g/ha) | weed control effect (activity level), Veronica polita (Veronica polita; dose 1000 g/ha) | weed control effect (activity level), Rorippa indica (Rorippa indica; dose 1000 g/ha) | weed control effect (activity level), Amaranthus retroflexus (Amaranthus retroflexus; dose 1000 g/ha)

Oc1cc(C(F)(F)F)nnc1-c1ccnn1CC(F)(F)F [Compound 831]
10: weed control effect (activity level), Chenopodiaceae (Chenopodiaceae; Dose 3000 g/ha) | weed control effect (activity level), Veronica polita (Veronica polita; Dose 3000 g/ha) | weed control effect (activity level), Rorippa indica (Rorippa indica; Dose 3000 g/ha) | weed control effect (activity level), Amaranthus retroflexus (Amaranthus retroflexus; Dose 3000 g/ha)

CCn1nc(C2CC2)cc1-c1nnc(C(F)(F)F)cc1O [Compound 827]
10: weed control effect (activity level), Chenopodiaceae (Chenopodiaceae; Dose 3000 g/ha) | weed control effect (activity level), Veronica polita (Veronica polita; Dose 3000 g/ha) | weed control effect (activity level), Rorippa indica (Rorippa indica; Dose 3000 g/ha) | weed control effect (activity level), Amaranthus retroflexus (Amaranthus retroflexus; Dose 3000 g/ha)

Oc1cc(C(F)(F)F)nnc1-c1cnccc1C(F)(F)F [Compound 978]
10: weed control effect (activity level), Chenopodiaceae (Chenopodiaceae; Dose 3000 g/ha) | weed control effect (activity level), Veronica polita (Veronica polita; Dose 3000 g/ha) | weed control effect (activity level), Rorippa indica (Rorippa indica; Dose 3000 g/ha) | weed control effect (activity level), Amaranthus retroflexus (Amaranthus retroflexus; Dose 3000 g/ha)

Oc1cc(C(F)(F)F)nnc1-c1cnccc1I [Compound 972]
10: weed control effect (activity level), Chenopodiaceae (Chenopodiaceae; Dose 3000 g/ha) | weed control effect (activity level), Veronica polita (Veronica polita; Dose 3000 g/ha) | weed control effect (activity level), Rorippa indica (Rorippa indica; Dose 3000 g/ha) | weed control effect (activity level), Amaranthus retroflexus (Amaranthus retroflexus; Dose 3000 g/ha)

Cc1cnn(C)c1-c1nnc(C(F)(F)F)cc1O [Compound 808]
10: weed control effect (activity level), Chenopodiaceae (Chenopodiaceae; Dose 3000 g/ha) | weed control effect (activity level), Veronica polita (Veronica polita; Dose 3000 g/ha) | weed control effect (activity level), Rorippa indica (Rorippa indica; Dose 3000 g/ha) | weed control effect (activity level), Amaranthus retroflexus (Amaranthus retroflexus; Dose 3000 g/ha)

Oc1cc(C(F)(F)F)nnc1-c1ccc(F)nc1Cl [Compound 1003]
10: weed control effect (activity level), Chenopodiaceae (Chenopodiaceae; Dose 3000 g/ha) | weed control effect (activity level), Veronica polita (Veronica polita; Dose 3000 g/ha) | weed control effect (activity level), Rorippa indica (Rorippa indica; Dose 3000 g/ha) | weed control effect (activity level), Amaranthus retroflexus (Amaranthus retroflexus; Dose 3000 g/ha)

COc1ccc(-c2nnc(C(F)(F)F)cc2O)cc1 [Compound 93]
10: weed control effect (activity level), Chenopodiaceae (Chenopodiaceae; dose 1000 g/ha) | weed control effect (activity level), Veronica polita (Veronica polita; dose 1000 g/ha) | weed control effect (activity level), Rorippa indica (Rorippa indica; dose 1000 g/ha) | weed control effect (activity level), Amaranthus retroflexus (Amaranthus retroflexus; dose 1000 g/ha)

COc1ccc(OCC(=O)Oc2cc(C(F)(F)F)nnc2-c2ccc(F)cc2)cc1 [Compound 1-101]
10: weed control effect, Chenopodiaceae (activity level) (Chenopodiaceae; Dose 3000 g/ha) | weed control effect, Veronica polita (activity level) (Veronica polita; Dose 3000 g/ha) | weed control effect, Rorippa indica (activity level) (Rorippa indica; Dose 3000 g/ha) | weed control effect, Amaranthus retroflexus (activity level) (Amaranthus retroflexus; Dose 3000 g/ha)

CC(C)Sc1ccc(-c2nnc(C(F)(F)F)cc2O)cc1 [Compound 96]
10: weed control effect (activity level), Chenopodiaceae (Chenopodiaceae; dose 1000 g/ha) | weed control effect (activity level), Veronica polita (Veronica polita; dose 1000 g/ha) | weed control effect (activity level), Rorippa indica (Rorippa indica; dose 1000 g/ha) | weed control effect (activity level), Amaranthus retroflexus (Amaranthus retroflexus; dose 1000 g/ha)
